Measurements reported in patent US20070142462A1, “Method of Treating Cancer” (The University of Utah, priority 2000, published 2007).

System: cyclin B1 and p34-cdc2 kinase
Assay: Immunoblot of cyclins, cyclin-associated kinases, inhibitors, p53
Assay type: cell-based, human
Conditions: M1619
Description: The effect of antioxidants on expression of cell cyclins, cyclin-associated kinases, cell cycle inhibitors and IκBα was studied by incubating near confluent cell cultures with antioxidant treatments for 15 min-48 hours. Cells were lysed and protein levels were measured by immunoblot assay as described below. In other experiments, the ratio of phosphorylated-IκBα to total IκBα was determined by harvest of cytosolic protein 24 hours after treating cultures with 3,000 U/ml catalase.
Immunoassay for Proteins. Cells were lysed and proteins were isolated and quantitated by immunoassay as previously detailed, using 2 μg/ml of primary rabbit polyclonal antibodies against human p53, the cyclins D1, E, A and B1, the cyclin-associated kinases cdk2 and cdc2, the cyclin kinase inhibitors p21^WAF1/Cip1 and p27, and peroxidase-labeled donkey polyclonal anti-rabbit IgG. […] Cells were placed on ice, washed twice with cold DPBS, scraped into 0.5 ml boiling buffer (10% [vol/vol] glycerol and 2% [wt/vol] sodium dodecyl sulfate [SDS] in 83 mM Tris, pH 6.8) and sheared by four passages through a pipette. Aliquots were removed for protein determination, using the BCA protein assay (Pierce). […] Immunoblots were rinsed again as above and detected using an enhanced chemiluminescence method (ECL Western blotting detection system, Amersham Life Science, Buckinghamshire, England) and autoradiography. […]

With Catalase the “expression of cyclin B1 and its associated kinase p34-cdc2” value (3,000 U/ml catalase) was “significant decrease” and the “protein levels of cyclins D1, E, A, cdk2, p53, p21WAF1/Cip1, p27” value (catalase-treated vs controls, data not shown) was “did not decrease”.
